The values that follow come from US20090176759A1, “LEUKEMIC STEM CELL ABLATION” (ChemGenex Pharmaceuticals, Inc., priority 2007, published 2009).

Structures are written as SMILES.

One experiment relates to ABL. Kind of experiment: Western Blot analysis of ABL expression. It is filed as cell-based. How it is done:
(§1) In FIG. 1A the number of viable cells at the indicated drug concentrations was determined by trypan blue. In FIG. 1B the expression of ABL and MCL-1 in K562 (myeloid) cells is inhibited by HHT. In FIG. 1C the expression of ABL in lymphoid cells with BCR-ABL or the BCR-ABL T315I mutation is inhibited by HHT.
(§2) Antibodies for Western Blot analysis against c-ABL, Mcl-1 and β-actin were purchased from Santa Cruz Biothechology (Santa Cruz, Calif.). Protein lysates were prepared by lysing cells in RIPA buffer and immunoprecipitation. The retroviral vector MSCV-IRES-eGFP carrying the BCR-ABL cDNA was used to make virus stock for bone marrow transduction/transplantation. Four- to 10-week-old wild-type BABL/c or C57BL/6 (The Jackson Laboratory) and homozygous SRC triple gene knockout (Lyn−/−Hck−/−Fgr−/−) mice were used for leukemogenesis experiments. HHT (ChemGenex Pharmaceuticals, Inc, CA) was dissolved in accompanying diluent to a stock concentration of 1 mg/ml. Further dilutions were made to working concentrations using media or water.
In general terms: A western blot detects proteins with antibodies after separation by electrophoresis.

The test system of experiment [1] is T315I mutated BCR-ABL transcripts. The experiment can be described thus: Peripheral blood BCR-ABL transcript levels by qRT-PCR and KD mutation analyses during omacetaxine therapy. It is filed as in vivo, human. How it is done:
Presence of T315I is confirmed at study entry at one of two reference labs (University of Texas MD Anderson Cancer Center or University of Heidelberg, Medizinische Fakultat Mannheim).
Peripheral blood BCR-ABL transcript levels are determined during omacetaxine therapy by quantitative real-time polymerase chain reaction (qRT-PCR) and BCR-ABL KD mutation analyses.
On the technique in general: Quantitative PCR measures a nucleic acid by following its amplification.

For experiment [2], the system named is B-cells containing BCR-ABL-WT. The experiment can be described thus: Proliferation, number of viable cells determined by trypan blue. It is filed as cell-based. How it is done:
as §1, §2

The subject of experiment [3] is B-cells containing BCR-ABL-T315I. The description is as above. It is filed as cell-based. How it is done: as §1, §2
A further experiment relates to K562 myeloid cells. The experiment is described as above. The class given is cell-based. How it is done:
as §1, §2

A further experiment has as its system BCR-ABL-WT-induced CML. Kind of experiment: Mice with BCR-ABL-WT-induced CML treated with HHT. The class given is in vivo. How it is done: FIG. 2A is a FACS analysis of circulating GFP+ cells in mice with BCR-ABL-WT-induced CML. […] The number of circulating leukemic cells (calculated as percentage of Gr-1+GFP+ cells×white blood cell count) in mice with BCR-ABL-WT-induced CML treated with placebo or HHT for 4 days was determined on day 12 after transplantation. FIG. 2B depicts a bar graph for the leukemic cells as well as a bar graph for spleen weight of the mice treated with placebo or HHT.
as §2
FIG. 2A is a FACS analysis of circulating leukemic GFP+ cells in mice with BCR-ABL-WT-induced CML. […] The number of circulating leukemic cells (calculated as percentage of Gr-1+GFP+ cells×white blood cell count) in mice with BCR-ABL-WT-induced CML treated with placebo or HHT for 4 days was determined on day 12 after transplantation. FIG. 2B depicts a bar graph for the leukemic cells as well as a bar graph for spleen weight of the mice treated with placebo or HHT.

Experiment [4] relates to leukemia stem cells of mice with BCR-ABL-WT-induced CML. The experiment can be described thus: Leukemic cells and leukemia stem cells in bone marrow of treated CML mice, FACS. The class given is in vivo. Particulars: HHT 0.5 mg/kg once every day, imatinib 100 mg/kg twice a day, by gavage, 4 days beginning at day 8 after transplantation. How it is done:
FIG. 5A is a FACS analysis of bone marrow cells isolated from mice with BCR-ABL-WT-induced CML were cultured in vitro (5×10^6 cells/6 cm tissue culture plate) in the presence of different doses of HHT for 6 days (changing the stem cell medium containing placebo or HHT at day 3) followed by FACS analysis of leukemia stem cells (GFP+Lin− c-Kit+Sca-1+). FIG. 5B depicts bar graphs for the leukemic cells and leukemic stem cells. […] Bone marrow cells were isolated from the treated CML mice, and leukemia stem cells were analyzed by FACS. The numbers of cells represent total leukemia stem cells in average from femur and tibia of each treated CML mouse.
Bone marrow cells were isolated from the treated CML mice, and leukemia stem cells were analyzed by FACS. The numbers of cells represent total leukemia stem cells in average from femur and tibia of each treated CML mouse.

For experiment [5], the system named is BCR-ABL-T315I-induced CML. The experiment can be described thus: Mice with BCR-ABL-T315I-induced CML treated with HHT. It is filed as in vivo. How it is done: In FIG. 3A, the number of circulating leukemic cells (calculated as percentage of Gr-1+GFP+ cells×white blood cell count) in mice with BCR-ABL-T315I-induced CML treated with placebo or HHT was determined on day 14 after transplantation.
as §2
The number of circulating leukemic cells (calculated as percentage of Gr-1+GFP+ cells×white blood cell count) in mice with BCR-ABL-T315I-induced CML treated with placebo or HHT (0.5 mg/kg) was determined on day 14 after transplantation.

For the compound `COC(=O)C[C@](O)(CCCC(C)(C)O)C(=O)O[C@@H]1C(OC)=C[C@]23CCCN2CCc2cc4c(cc2[C@H]13)OCO4` [HHT, Homoharringtonine], the “expression of ABL” value in the experiment with ABL (K562 (myeloid) cells), in the experiment on ABL (lymphoid cells with BCR-ABL) and in the experiment with ABL (lymphoid cells with the BCR-ABL T315I mutation) was “inhibited” throughout. Besides, in experiment [1] (5/13 evaluable patients), the “evaluable patients with T315I mutated BCR-ABL transcripts reduced below the detection level” value is listed as 38%. In addition, the T315I mutated clone entry in experiment [1] (CP patients (FIG. 8)) was “rapidly and substantially reduced”. For the same compound, the “patients in whom the T315I clone is reduced to below the limits of detection” value in experiment [1] (chronic phase patients (FIG. 8)) turned out to be 64%. The T315I clone result in experiment [1] (heavily-pretreated patients with IM-resistant T315I+CML) is given as “complete elimination of the T315I clone in a number of heavily-pretreated patients”. Further, the proliferation entry (in experiment [2]; in experiment [3]; in the experiment with K562 myeloid cells) was “inhibits the proliferation” each time. In addition, the survival entry is on record as “significantly increased” in the experiment with BCR-ABL-WT-induced CML (BCR-ABL-WT CML mice, HHT vs placebo) and “prolonged survival” in experiment [5] (BCR-ABL-T315I CML mice, HHT vs placebo). Further, the “number of circulating leukemic cells (percentage of Gr-1+GFP+ cells×white blood cell count)” value in the experiment on BCR-ABL-WT-induced CML (HHT 0.5 mg/kg for 4 days, day 12 after transplantation, vs placebo) is “significantly reduces”; in experiment [5] (HHT 0.5 mg/kg, day 14 after transplantation, vs placebo), “significantly reduced”. Also, in the experiment with BCR-ABL-WT-induced CML (HHT 0.5 mg/kg vs placebo), the “size of the spleen (spleen weight)” value is “significantly reduces”. The “number of leukemic cells in bone marrow” value in experiment [4] is reported as “reduces”. In experiment [4], the “number of leukemic stem cells in bone marrow (femur and tibia)” value is on record as “reduces”.
